Assay results as given in patent publication US9610279B2, “Method for induction of a heat shock protein, anti-stress or regulation of an autonomic nerve” (AMINO UP CHEMICAL CO., LTD., priority 2011, dated 2017).

Tested on: HSP70
Experiment: HSP70 protein expression inducing activity in HeLa cells (ELISA)
Assay type: cell-based, human
Conditions: final concentration 1 mg/mL, 24 hours
Procedure: The HSP70 inducing activity of the samples 1, 3, and 4 which were the same ones as used in Example 4 was evaluated by measuring an HSP70 protein expression level. In the same manner as described in Example 4, HeLa cells that had been suspended in DMEM (added with 10% FBS) were seeded in a 12-well plate (100,000 cells/mL/well). […] A part of the cells were then scraped off with a cell scraper, collected into a 1.5 mL sample tube, and subjected to HSP70 protein quantification and total protein quantification. The quantification of HSP70 protein was carried out using HSP70 ELISA kit (product name) (manufactured by Enzo); and the quantification of total protein was carried out using Micro BCA Protein Assay Reagent kit (product name) (manufactured by PIERCE Biotechnology). With regard to the remaining cells, an effect on cell proliferation was evaluated by 3-(4,5-dimethyl […])-2,5-diphenyltetrazalium bromide (MTT) method. […]

In the case of O=Cc1ccc(CO)o1 [sample 1, 5-Hydroxymethyl-2-furaldehyde], the “increased HSP70 protein expression as compared with the control” value is reported as “about 1.3 fold”.
